Experimental findings from patent publication US20230416228A1 (Forkhead Biotherapeutics, Inc., priority 2020, published 2023) are described below.

The target in this test is T1, human FOXO1 (constitutively active form Thr24Ala, Ser256Ala, Ser319Ala) (Homo sapiens, UniProt Q12778, S256A/S319A/T24A).
T1 construct: expressed in transfected cells; host or cells: HEK293 cells transfected with pcDNA3.1 plasmid
Kind of test: FOXO1 inhibitor activity assay: cell-based transcriptional (luciferase) reporter assay in HEK293 cells. As to conditions: HEK293 cells transfected with insulin response element firefly luciferase reporter, FOXO1 and Renilla luciferase; 10-point dose response 50 μM to 2.5 nM; 24 hours. The essentials: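 IC50 and maximal inhibition were fitted by 4-parameter logistic regression on normalized firefly/Renilla luciferase ratios. The 0% reference used RFP in place of FOXO1, and the 100% reference was DMSO-only with all plasmids.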
(In a reporter assay the amount or activity of a reporter protein is the signal.)

pIC50: −log10 of the molar value. Counter-ions that a name gives are not always drawn.

T1 sequence (Q12778 whole entry T24A/S256A/S319A): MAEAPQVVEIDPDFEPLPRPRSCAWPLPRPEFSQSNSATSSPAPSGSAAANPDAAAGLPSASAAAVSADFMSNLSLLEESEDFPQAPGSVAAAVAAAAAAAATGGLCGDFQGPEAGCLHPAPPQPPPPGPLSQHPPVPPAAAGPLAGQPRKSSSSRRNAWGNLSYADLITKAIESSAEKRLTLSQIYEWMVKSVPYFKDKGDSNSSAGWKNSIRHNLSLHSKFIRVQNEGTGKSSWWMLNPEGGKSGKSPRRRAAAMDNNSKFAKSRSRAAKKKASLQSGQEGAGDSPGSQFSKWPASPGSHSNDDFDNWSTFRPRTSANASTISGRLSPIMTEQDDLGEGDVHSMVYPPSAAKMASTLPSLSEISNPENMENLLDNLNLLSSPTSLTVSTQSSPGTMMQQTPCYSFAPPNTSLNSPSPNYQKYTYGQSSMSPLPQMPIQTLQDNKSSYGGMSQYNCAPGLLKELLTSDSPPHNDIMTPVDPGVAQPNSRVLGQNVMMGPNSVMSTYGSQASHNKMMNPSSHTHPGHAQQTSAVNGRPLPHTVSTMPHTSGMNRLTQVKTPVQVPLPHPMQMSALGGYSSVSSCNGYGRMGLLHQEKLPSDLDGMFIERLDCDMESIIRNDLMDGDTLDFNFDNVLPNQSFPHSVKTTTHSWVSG

Consider `COCCn1nc(NC(=O)c2ccc(OC)c(Cl)c2)cc1-c1nc2ccccc2[nH]1` [Compound A-175, N-[5-(1H-benzimidazol-2-yl)-1-(2-methoxyethyl)pyrazol-3-yl]-3-chloro-4-methoxy-benzamide], for which the pIC50 – broadly, the negative decadic logarithm of the IC50, by convention in mol/L – was less than 6.00.

With `COCCn1nc(NC(=O)c2ccc(N3CC(OC)C3)nc2)cc1-c1nc2ccccc2[nH]1` [Compound A-176, N-[5-(1H-benzimidazol-2-yl)-1-(2-methoxyethyl)pyrazol-3-yl]-6-(3-methoxyazetidin-1-yl)pyridine-3-carboxamide], the pIC50 was less than 6.00.

Turning to `CN1CCN(c2ccc(C(=O)Nc3cc(-c4nc5ccccc5[nH]4)[nH]n3)nn2)CC1` [Compound A-177, N-[5-(1H-benzimidazol-2-yl)-1H-pyrazol-3-yl]-6-(4-methylpiperazin-1-yl)pyridazine-3-carboxamide], the pIC50 is less than 6.00.

For the compound `COCCN1CCN(c2ccc(C(=O)Nc3cc(-c4nc5ccccc5[nH]4)n(CCOC)n3)cn2)CC1` [Compound A-178, N-[5-(1H-benzimidazol-2-yl)-1-(2-methoxyethyl)pyrazol-3-yl]-6-[4-(2-methoxyethyl)piperazin-1-yl]pyridine-3-carboxamide], the pIC50 is 6.00 to 6.52.

Compound `CN1CCN(c2cnc(C(=O)Nc3cc(-c4nc5ccccc5[nH]4)[nH]n3)cn2)CC1` [Compound A-179, N-[5-(1H-benzimidazol-2-yl)-1H-pyrazol-3-yl]-5-(4-methylpiperazin-1-yl)pyrazine-2-carboxamide] had a pIC50 of 6.52 to 7.00.

Turning to `CN1CCN(c2ncc(C(=O)Nc3cc(-c4nc5ccccc5[nH]4)[nH]n3)cn2)CC1` [Compound A-180, N-[5-(1H-benzimidazol-2-yl)-1H-pyrazol-3-yl]-2-(4-methylpiperazin-1-yl)pyrimidine-5-carboxamide], the pIC50 is 6.52 to 7.00.

Turning to `O=C(Nc1cc(-c2nc3ccccc3[nH]2)[nH]n1)c1ccc(N2CCN(CCO)CC2)cc1` [Compound A-181], the pIC50 was greater than 7.00.

Consider `COCCn1nc(NC(=O)c2ccc(N3CCN(C)CC3)nc2)cc1-c1nc2ccccc2[nH]1` [Compound A-182, N-[5-(1H-benzimidazol-2-yl)-1-(2-methoxyethyl)pyrazol-3-yl]-6-(4-methyl-piperazin-1-yl)pyridine-3-carboxamide], for which the pIC50 was 6.00 to 6.52.

For the compound `COC1CN(c2ncc(C(=O)Nc3cc(-c4nc5ccccc5[nH]4)[nH]n3)cn2)C1` [Compound A-183, N-[5-(1H-benzimidazol-2-yl)-1H-pyrazol-3-yl]-2-(3-methoxyazetidin-1-yl)pyrimidine-5-carboxamide], the pIC50 is less than 6.00.

With `CN1CCN(c2ccc(C(=O)Nc3cc(-c4nc5ccccc5[nH]4)[nH]n3)nc2)CC1` [Compound A-184, N-[5-(1H-benzimidazol-2-yl)-1H-pyrazol-3-yl]-5-(4-methylpiperazin-1-yl)pyridine-2-carboxamide], the pIC50 was less than 6.00.

`COCCn1nc(NC(=O)c2ccc(N3CCN(C)CC3)cc2)cc1-c1nc2ccccc2[nH]1` [Compound A-185, N-[5-(1H-benzimidazol-2-yl)-1-(2-methoxyethyl)pyrazol-3-yl]-4-(4-methylpiperazin-1-yl)benzamide] had a pIC50 of less than 6.00.

In turn, `COC1CN(c2cnc(C(=O)Nc3cc(-c4nc5ccccc5[nH]4)[nH]n3)cn2)C1` [Compound A-186, N-[5-(1H-benzimidazol-2-yl)-1H-pyrazol-3-yl]-5-(3-methoxyazetidin-1-yl)pyrazine-2-carboxamide] gave a pIC50 of less than 6.00.

As to `COc1cc(F)c2[nH]c(-c3cc(NC(=O)c4ccc(N5CC(OC)C5)nc4)nn3C)nc2c1` [Compound A-187, N-[5-(7-fluoro-5-methoxy-1H-benzimidazol-2-yl)-1-methyl-pyrazol-3-yl]-6-(3-methoxyazetidin-1-yl)pyridine-3-carboxamide], the pIC50 was 6.00 to 6.52.

With `COc1cc(F)c2[nH]c(-c3cc(NC(=O)c4ccc(N5CC(OC)C5)nc4)n[nH]3)nc2c1` [Compound A-188, N-[5-(7-fluoro-5-methoxy-1H-benzimidazol-2-yl)-1H-pyrazol-3-yl]-6-(3-methoxyazetidin-1-yl)pyridine-3-carboxamide], the pIC50 is less than 6.00.

In turn, `COc1cc(F)c2[nH]c(-c3cc(NC(=O)c4ccc(N5CCC(OC)CC5)nc4)nn3C)nc2c1` [Compound A-189, N-[5-(7-fluoro-5-methoxy-1H-benzimidazol-2-yl)-1-methyl-pyrazol-3-yl]-6-(4-methoxy-1-piperidyl)pyridine-3-carboxamide] had a pIC50 greater than 7.00.

`COCCN1CCN(c2ccc(C(=O)Nc3cc(-c4nc5cc(OC)cc(F)c5[nH]4)n(C)n3)cn2)CC1` [Compound A-190, N-[5-(7-fluoro-5-methoxy-1H-benzimidazol-2-yl)-1-methyl-pyrazol-3-yl]-6-[4-(2-methoxyethyl)piperazin-1-yl]pyridine-3-carboxamide] had a pIC50 greater than 7.00.

As for `COc1cc(F)c2[nH]c(-c3cc(NC(=O)c4ccc(N5CCN(C)CC5)nc4)nn3C)nc2c1` [Compound A-191, N-[5-(7-fluoro-5-methoxy-1H-benzimidazol-2-yl)-1-methyl-pyrazol-3-yl]-6-(4-methylpiperazin-1-yl)pyridine-3-carboxamide], the pIC50 is 6.52 to 7.00.

Take `COCCN1CCN(c2ccc(C(=O)Nc3cc(-c4nc5cc(OC)cc(F)c5[nH]4)[nH]n3)cn2)CC1` [Compound A-192, N-[5-(7-fluoro-5-methoxy-1H-benzimidazol-2-yl)-1H-pyrazol-3-yl]-6-[4-(2-methoxyethyl)piperazin-1-yl]pyridine-3-carboxamide]: the pIC50 is less than 6.00.

Consider `COc1cc(F)c2[nH]c(-c3cc(NC(=O)c4ccc(N5CCC(OC)CC5)nc4)n[nH]3)nc2c1` [Compound A-193, N-[5-(7-fluoro-5-methoxy-1H-benzimidazol-2-yl)-1H-pyrazol-3-yl]-6-(4-methoxy-1-piperidyl)pyridine-3-carboxamide], for which the pIC50 was less than 6.00.

With `COc1ccc(C(=O)Nc2cc(-c3nc4ccccc4[nH]3)n(CCO)n2)cc1Cl` [Compound A-195, N-[5-(1H-benzimidazol-2-yl)-1-(2-hydroxyethyl)pyrazol-3-yl]-3-chloro-4-methoxy-benzamide], the pIC50 was 6.52 to 7.00.

The compound `COC1CN(c2ccc(C(=O)Nc3cc(-c4nc5ccccc5[nH]4)n(CCO)n3)cn2)C1` [Compound A-196, N-[5-(1H-benzimidazol-2-yl)-1-(2-hydroxyethyl)pyrazol-3-yl]-6-(3-methoxyazetidin-1-yl)pyridine-3-carboxamide] had a pIC50 of less than 6.00.

With `O=C(O)CCN1CCN(c2ccc(C(=O)Nc3cc(-c4nc5ccccc5[nH]4)[nH]n3)cc2)CC1` [Compound A-197, 3-[4-[4-[[5-(1H-benzimidazol-2-yl)-1H-pyrazol-3-yl]carbamoyl]phenyl]-piperazin-1-yl]propanoic acid hydrochloride], the pIC50 was less than 6.00.

In turn, `COCCN1CCN(c2ccc(C(=O)Nc3cc(-c4nc5ccccc5[nH]4)n(CCO)n3)cn2)CC1` [Compound A-198, N-[5-(1H-benzimidazol-2-yl)-1-(2-hydroxyethyl)pyrazol-3-yl]-6-[4-(2-methoxyethyl)piperazin-1-yl]pyridine-3-carboxamide] gave a pIC50 of 6.00 to 6.52.

`O=C(O)CN1CCN(c2ccc(C(=O)Nc3cc(-c4nc5ccccc5[nH]4)[nH]n3)cc2)CC1` [Compound A-199, 2-[4-[4-[[5-(1H-benzimidazol-2-yl)-1H-pyrazol-3-yl]carbamoyl]phenyl]-piperazin-1-yl]acetic acid hydrochloride]: the pIC50 was 6.52 to 7.00.

Turning to `CN1CCN(c2ccc(C(=O)Nc3cc(-c4nc5ccccc5[nH]4)n(CCO)n3)cn2)CC1` [Compound A-200, N-[5-(1H-benzimidazol-2-yl)-1-(2-hydroxyethyl)pyrazol-3-yl]-6-(4-methyl-piperazin-1-yl)pyridine-3-carboxamide], the pIC50 is 6.00 to 6.52.

Compound `CN1CCN(c2ccc(C(=O)Nc3cc(-c4nc5ccccc5[nH]4)n(CCO)n3)cc2)CC1` [Compound A-201, N-[5-(1H-benzimidazol-2-yl)-1-(2-hydroxyethyl)pyrazol-3-yl]-4-(4-methylpiperazin-1-yl)benzamide] showed a pIC50 of 6.00 to 6.52.

With `Cn1nc(NC(=O)c2ccc(OCCO)c(Cl)c2)cc1-c1nc2ccccc2[nH]1` [Compound A-202, N-[5-(1H-benzimidazol-2-yl)-1-methyl-pyrazol-3-yl]-3-chloro-4-(2-hydroxyethoxy)benzamide], the pIC50 was greater than 7.00.

On to `Cn1nc(NC(=O)c2ccc(N3CCN(C4COC4)CC3)nc2)cc1-c1nc2ccccc2[nH]1` [Compound A-203, N-[5-(1H-benzimidazol-2-yl)-1-methyl-pyrazol-3-yl]-6-[4-(oxetan-3-yl)piperazin-1-yl]pyridine-3-carboxamide], for which the pIC50 was 6.52 to 7.00.

With `Cn1nc(NC(=O)c2ccc(N3CCN(CCO)CC3)nc2)cc1-c1nc2ccccc2[nH]1` [Compound A-204, N-[5-(1H-benzimidazol-2-yl)-1-methyl-pyrazol-3-yl]-6-[4-(2-hydroxy-ethyl)piperazin-1-yl]pyridine-3-carboxamide], the pIC50 is 6.52 to 7.00.

For `Cn1nc(NC(=O)c2cnc(N3CCC(N4CCOCC4)CC3)cn2)cc1-c1nc2ccccc2[nH]1` [Compound A-205, N-[5-(1H-benzimidazol-2-yl)-1-methyl-pyrazol-3-yl]-5-(4-morpholino-1-piperidyl)pyrazine-2-carboxamide], the pIC50 was 6.00 to 6.52.

Regarding `Cn1nc(NC(=O)c2cnc(N3CCC(N4CCOCC4)CC3)nc2)cc1-c1nc2ccccc2[nH]1` [Compound A-206, N-[5-(1H-benzimidazol-2-yl)-1-methyl-pyrazol-3-yl]-2-(4-morpholino-1-piperidyl)pyrimidine-5-carboxamide], the pIC50 was less than 6.00.

Regarding `Cn1nc(NC(=O)c2ccc(N3CCC(N4CCOCC4)CC3)nn2)cc1-c1nc2ccccc2[nH]1` [Compound A-207, N-[5-(1H-benzimidazol-2-yl)-1-methyl-pyrazol-3-yl]-6-(4-morpholino-1-piperidyl)pyridazine-3-carboxamide], the pIC50 is 6.00 to 6.52.
